Reference: patent US4808711A, “Cephalosporin derivatives” (Sankei Pharmaceutical Co., Ltd., priority 1985, dated 1989)
Values after ≈ are worked out from the molar mass of the structure shown.

Key:
Type in all cases: cell-based
K. pneumoniae ATCC27736 = test: MIC, K. pneumoniae ATCC27736; details: Klebsiella pneumoniae, read-out: MIC
Protocol: (§1) The minimum inhibition concentrations (MIC) of the compounds obtained by the present invention were measured according to the standard method of Japanese Chemotherapy Association.

[1] = tested on: S. flexneri 2a CDC 4807-62; test: MIC, S. flexneri 2a CDC 4807-62; details: Shigella flexneri, read-out: MIC
Protocol: as §1

S. newport 563 = test: MIC, S. newport 563; details: Salmonella enterica, read-out: MIC
Protocol: as §1

S. paratyphi A 144-12-93 = test: MIC, S. paratyphi A 144-12-93; details: Salmonella enterica, PARATYPHI
Protocol: as §1

S. typhi 1099-77 = test: MIC, S. typhi 1099-77; details: Salmonella enterica, TYPHI
Protocol: as §1

P. vulgaris ATCC6398 = test: MIC, P. vulgaris ATCC6398; details: Proteus vulgaris, read-out: MIC
Protocol: as §1

S. paratyphi B = test: MIC, S. paratyphi B; details: Salmonella enterica, PARATYPHI
Protocol: as §1

P. putida ATCC12633 = test: MIC, P. putida ATCC12633; details: Pseudomonas putida
Protocol: as §1

P. mirabilis IFO3849 = test: MIC, P. mirabilis IFO3849; details: Proteus mirabilis, read-out: MIC
Protocol: as §1

S. aureus Smith = test: MIC, S. aureus Smith; details: Staphylococcus aureus, read-out: MIC
Protocol: as §1

S. sonnei SH72-415 = test: MIC, S. sonnei SH72-415; details: Shigella sonnei, SH72415, read-out: MIC
Protocol: as §1

S. faecalis IFO3826 = test: MIC, S. faecalis IFO3826; details: Enterococcus faecalis, read-out: MIC
Protocol: as §1

E. cloacae ATCC13047 = test: MIC, E. cloacae ATCC13047; details: Enterobacter cloacae
Protocol: as §1

E. coli ATCC25922 = test: MIC, E. coli ATCC25922; details: Escherichia coli, read-out: MIC
Protocol: as §1

S. epidermidis ATCC14990 = test: MIC, S. epidermidis ATCC14990; details: Staphylococcus epidermidis, read-out: MIC
Protocol: as §1

S. typhimurium ATCC13311 = test: MIC, S. typhimurium ATCC13311; details: Salmonella enterica, read-out: MIC
Protocol: as §1

B. subtilis ATCC6633 = test: MIC, B. subtilis ATCC6633; details: Bacillus subtilis; B. subtilis ATCC6633; read-out: MIC
Protocol: as §1

C. freundii IFO12681 = test: MIC, C. freundii IFO12681; details: Citrobacter freundii, read-out: MIC
Protocol: as §1

P. rettgeri ATCC14505 = test: MIC, P. rettgeri ATCC14505; details: Providencia rettgeri, read-out: MIC
Protocol: as §1

P. fluorescens ATCC13525 = test: MIC, P. fluorescens ATCC13525; details: Pseudomonas fluorescens, read-out: MIC
Protocol: as §1

S. dysenteriae 4379-60 = test: MIC, S. dysenteriae 4379-60; details: Shigella dysenteriae, 437960
Protocol: as §1

S. aureus TASAKI = test: MIC, S. aureus TASAKI; details: Staphylococcus aureus; S. aureus TASAKI; standard method of Japanese Chemotherapy Association; read-out: MIC
Protocol: as §1

S. marcescens IFO12648 = test: MIC, S. marcescens IFO12648; details: Serratia marcescens, read-out: MIC
Protocol: as §1

P. aeruginosa ATCC9721 = test: MIC, P. aeruginosa ATCC9721; details: Pseudomonas aeruginosa; P. aeruginosa ATCC9721; read-out: MIC
Protocol: as §1

S. aureus 209P JC-1 = test: MIC, S. aureus 209P JC-1; details: Staphylococcus aureus; S. aureus 209P JC-1; read-out: MIC
Protocol: as §1

P. cepacia ATCC25416 = test: MIC, P. cepacia ATCC25416; details: Burkholderia cepacia, read-out: MIC
Protocol: as §1

S. aureus ATCC25923 = test: MIC, S. aureus ATCC25923; details: Staphylococcus aureus; S. aureus ATCC25923; read-out: MIC
Protocol: as §1

S. flexneri Y NCTC 9730 = test: MIC, S. flexneri Y NCTC 9730; details: Shigella flexneri, NCTC9730, read-out: MIC
Protocol: as §1

S. boyadii CDC 2064-59 = test: MIC, S. boyadii CDC 2064-59
Protocol: as §1

P. maltophilia ATCC13637 = test: MIC, P. maltophilia ATCC13637; details: Stenotrophomonas maltophilia
Protocol: as §1

E. coli NIHJ JC-2 = test: MIC, E. coli NIHJ JC-2; details: Escherichia coli, NIHJJC2, read-out: MIC
Protocol: as §1

S. anatum 677-69 = test: MIC, S. anatum 677-69; details: Salmonella enterica, 67769, read-out: MIC
Protocol: as §1

S. paratyphi C 33-76 = test: MIC, S. paratyphi C 33-76; details: Salmonella enterica, PARATYPHI
Protocol: as §1

P. vulgaris ATCC6380 = test: MIC, P. vulgaris ATCC6380; details: Proteus vulgaris, read-out: MIC
Protocol: as §1

S. typhimurium IFO 12529 = test: MIC, S. typhimurium IFO 12529; details: Salmonella enterica, read-out: MIC
Protocol: as §1

C. freundii GN7391 = test: MIC, C. freundii GN7391; details: Citrobacter freundii
Protocol: as §1

P. aeruginosa GN10 = test: MIC, P. aeruginosa GN10; details: Pseudomonas aeruginosa
Protocol: as §1

E. coli W3630/Rms212 = test: MIC, E. coli W3630/Rms212; details: Escherichia coli
Protocol: as §1

E. Coli GN5482 = test: MIC, E. Coli GN5482; details: Escherichia coli
Protocol: as §1

E. cloacae GN7471 = test: MIC, E. cloacae GN7471; details: Enterobacter cloacae
Protocol: as §1

P. morganii GN5407 = test: MIC, P. morganii GN5407; details: Morganella morganii
Protocol: as §1

P. vulgaris GN7919 = test: MIC, P. vulgaris GN7919; details: Proteus vulgaris
Protocol: as §1

S. marcescens GN10851 = test: MIC, S. marcescens GN10851; details: Serratia marcescens
Protocol: as §1

E. coli W3630/Rms213 = test: MIC, E. coli W3630/Rms213; details: Escherichia coli
Protocol: as §1

P. rettgeri GN4430 = test: MIC, P. rettgeri GN4430; details: Providencia rettgeri
Protocol: as §1

E. coli W3630/Rte16 = test: MIC, E. coli W3630/Rte16; details: Escherichia coli
Protocol: as §1

Cc1nnc(SCC2=C(C(=O)O)N3C(=O)C(NC(=O)C(=NOCC(=O)NNC(=O)c4ccc(O)c(O)c4)c4csc(N)n4)C3SC2)s1 (stereo not drawn) [Example 59]
MIC (K. pneumoniae ATCC27736): 0.012 µg/mL (≈ 0.0166 µM) | MIC [1]: 0.2 µg/mL (≈ 0.277 µM) | MIC (S. newport 563): 0.05 µg/mL (≈ 0.0693 µM) | MIC (S. paratyphi A 144-12-93): 0.025 µg/mL (≈ 0.0346 µM) | MIC (S. typhi 1099-77): ≤ 0.006 µg/mL | MIC (P. vulgaris ATCC6398): 0.05 µg/mL (≈ 0.0693 µM) | MIC (S. paratyphi B): 0.012 µg/mL (≈ 0.0166 µM) | MIC (P. putida ATCC12633): 0.78 µg/mL (≈ 1.08 µM) | MIC (P. mirabilis IFO3849): 0.39 µg/mL (≈ 0.54 µM) | MIC (S. aureus Smith): 0.78 µg/mL (≈ 1.08 µM) | MIC (S. sonnei SH72-415): 0.05 µg/mL (≈ 0.0693 µM) | MIC (S. faecalis IFO3826): > 100 µg/mL | MIC (E. cloacae ATCC13047): 1.56 µg/mL (≈ 2.16 µM) | MIC (E. coli ATCC25922): 0.1 µg/mL (≈ 0.139 µM) | MIC (S. epidermidis ATCC14990): 0.39 µg/mL (≈ 0.54 µM) | MIC (S. typhimurium ATCC13311): 0.1 µg/mL (≈ 0.139 µM) | MIC (B. subtilis ATCC6633): 0.39 µg/mL (≈ 0.54 µM) | MIC (C. freundii IFO12681): 0.78 µg/mL (≈ 1.08 µM) | MIC (P. rettgeri ATCC14505): 0.78 µg/mL (≈ 1.08 µM) | MIC (P. fluorescens ATCC13525): 12.5 µg/mL (≈ 17.3 µM) | MIC (S. dysenteriae 4379-60): 0.05 µg/mL (≈ 0.0693 µM) | MIC (S. aureus TASAKI): 1.56 µg/mL (≈ 2.16 µM) | MIC (S. marcescens IFO12648): 0.39 µg/mL (≈ 0.54 µM) | MIC (P. aeruginosa ATCC9721): 0.1 µg/mL (≈ 0.139 µM) | MIC (S. aureus 209P JC-1): 0.39 µg/mL (≈ 0.54 µM) | MIC (P. cepacia ATCC25416): 0.39 µg/mL (≈ 0.54 µM) | MIC (S. aureus ATCC25923): 0.78 µg/mL (≈ 1.08 µM) | MIC (S. flexneri Y NCTC 9730): 0.78 µg/mL (≈ 1.08 µM) | MIC (S. boyadii CDC 2064-59): 0.39 µg/mL (≈ 0.54 µM) | MIC (P. maltophilia ATCC13637): 0.78 µg/mL (≈ 1.08 µM) | MIC (E. coli NIHJ JC-2): 0.39 µg/mL (≈ 0.54 µM) | MIC (S. anatum 677-69): 0.025 µg/mL (≈ 0.0346 µM) | MIC (S. paratyphi C 33-76): 0.012 µg/mL (≈ 0.0166 µM) | MIC (P. vulgaris ATCC6380): 0.39 µg/mL (≈ 0.54 µM) | MIC (S. typhimurium IFO 12529): 0.1 µg/mL (≈ 0.139 µM)

CC(=NNC(=O)NC(C(=O)NC1C(=O)N2C(C(=O)O)=C(CSc3nncs3)CSC12)c1csc(N)n1)c1cccc(O)c1 (stereo not drawn) [Example 104]
MIC (C. freundii GN7391): 100 µg/mL (≈ 151 µM) | MIC (P. aeruginosa GN10): 6.25 µg/mL (≈ 9.44 µM) | MIC (E. coli W3630/Rms212): 0.39 µg/mL (≈ 0.589 µM) | MIC (E. Coli GN5482): 0.78 µg/mL (≈ 1.18 µM) | MIC (E. cloacae GN7471): 3.13 µg/mL (≈ 4.73 µM) | MIC (P. morganii GN5407): 0.39 µg/mL (≈ 0.589 µM) | MIC (P. vulgaris GN7919): 50 µg/mL (≈ 75.6 µM) | MIC (S. marcescens GN10851): 100 µg/mL (≈ 151 µM) | MIC (E. coli W3630/Rms213): 0.1 µg/mL (≈ 0.151 µM) | MIC (P. rettgeri GN4430): 0.2 µg/mL (≈ 0.302 µM) | MIC (E. coli W3630/Rte16): 0.2 µg/mL (≈ 0.302 µM)

CC(=O)Oc1cc(OC(C)=O)cc(C(=O)NNC(=O)NC(C(=O)NC2C(=O)N3C(C(=O)O)=C(CSc4nncs4)CSC23)c2csc(N)n2)c1 (stereo not drawn) [Example 118]
MIC (C. freundii GN7391): > 100 µg/mL | MIC (P. aeruginosa GN10): 6.25 µg/mL (≈ 8.18 µM) | MIC (E. coli W3630/Rms212): 0.39 µg/mL (≈ 0.511 µM) | MIC (E. Coli GN5482): 1.56 µg/mL (≈ 2.04 µM) | MIC (E. cloacae GN7471): 6.25 µg/mL (≈ 8.18 µM) | MIC (P. morganii GN5407): 0.78 µg/mL (≈ 1.02 µM) | MIC (P. vulgaris GN7919): 100 µg/mL (≈ 131 µM) | MIC (S. marcescens GN10851): 100 µg/mL (≈ 131 µM) | MIC (E. coli W3630/Rms213): 0.2 µg/mL (≈ 0.262 µM) | MIC (P. rettgeri GN4430): 0.39 µg/mL (≈ 0.511 µM) | MIC (E. coli W3630/Rte16): 0.39 µg/mL (≈ 0.511 µM)
